Source: publication PMC5413018, “Neuropeptide S (NPS) variants modify the signaling and risk effects of NPS Receptor 1 (NPSR1) variants in asthma” (PLoS ONE, 2017)

Legend:
NPSR1-Ile(107) [1] = settings: cell models; cited from earlier work
Text: The functional NPSR1 SNP rs324981 (A>T), encoding a substitution of Asn(107)Ile in the putative ligand-binding pocket of NPSR1 [5], has shown associations with neuropsychiatric phenotypes, such as panic disorders, psychological stress, and fear responses. […] In cell models, the change of Asn(107) to Ile(107) results in 10-fold increase in NPS-mediated intracellular sign ... || A key strength of this study is the use of robust in vitro cell assays that allowed us to dissect the functional effects of coding NPS/NPSR1 variants on receptor signaling and downstream gene expression. Our cell assays confirmed that stimulation of cells transfected with either NPSR1-Asn(107) or NPSR-Ile(107) with the wildtype NPS-Val(6), induced CRE activity as described previously.

NPSR1-Ile(107) [2] = target: T1, NPSR1-Ile(107) (Homo sapiens, UniProt Q6W5P4, N107I); assay: Real-time RT-PCR of downstream target genes in SH-SY5Y cells stably overexpressing NPSR1-Ile(107); assay type: cell-based; design: expressed in transfected cells; settings: SH-SY5Y over-expressing NPSR1-Ile(107), 0.0001–1 μM, 3 h, dose dependent
T1 sequence (Q6W5P4 1-371 N107I): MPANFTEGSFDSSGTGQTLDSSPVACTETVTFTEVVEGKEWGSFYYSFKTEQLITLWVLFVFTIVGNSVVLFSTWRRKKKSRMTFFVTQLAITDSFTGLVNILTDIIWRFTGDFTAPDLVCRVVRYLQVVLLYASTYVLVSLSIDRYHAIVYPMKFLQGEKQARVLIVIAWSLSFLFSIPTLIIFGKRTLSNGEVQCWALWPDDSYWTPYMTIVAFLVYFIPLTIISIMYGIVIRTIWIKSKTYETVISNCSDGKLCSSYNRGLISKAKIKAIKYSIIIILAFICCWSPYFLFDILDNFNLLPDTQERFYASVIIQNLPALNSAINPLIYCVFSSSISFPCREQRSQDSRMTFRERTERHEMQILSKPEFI
Procedure: Fig 2 Real time RT-PCR analysis of NPSR1 downstream target genes. (A) Time-dependent mRNA expression of NR4A1, FOS, CXCL2, and CCL20 in human embryonic kidney epithelial (HEK293) cells transiently transfected with either NPSR1-Ile(107) or NPSR1-Asn(107) coding variants and stimulated with either NPS-Val(6) or NPS-Leu(6) NPS (100 nM) for 1, 3, 6, and 24 h. (B) Dose-response curves of NR4A1, FOS, IER3, and EGR1 in human SH-SY5Y stable cell line over-expressing NPSR1-Ile(107) stimulated with either NPS-Leu(6) or NPS V6 (0.0001–1 μM) for 3 h. The results are presented as fold-changes in comparison to the unstimulated cells. GAPDH was used as the endogenous reference, and data are expressed as mean of triplicate samples. […] In all experiments, results were calculated with the comparative Ct method.
Altered neuroinflammatory mechanisms have been implicated in allergic airway inflammation. […] SH-SY5Y cells stably overexpressing NPSR1-Ile(107) were stimulated with either NPS-Leu(6) or NPS-Val(6) (0.0001–1 μM) for 3 h and the mRNA expression of known downstream target genes in these cells was detected using RT-PCR. […] These observations validated the results detected in HEK293 cells in an independent cell line.
The stable NPSR1-A-GFP expressing SH-SY5Y cells were engineered and cultured as described before. […] The changes in gene expression were analyzed with real-time PCR (RT-PCR). […]

mRNA expression of NR4A1, FOS, EGR1 and IER3 (in words) (NPSR1-Ile(107) [2]): increased
Substance: Neuropeptide S (SFRNGVGTGMKKTSFQRAKS; Neuropeptide S; UniProt P0C0P6 70-89, looked up) [NPS, Neuropeptide S, variant not specified at the place]
increase in NPS-mediated intracellular signaling on change of Asn(107) to Ile(107) (NPSR1-Ile(107) [1]): 10 fold
